Source: patent US20240124460A1, “METHODS AND COMPOSITIONS FOR TARGETED PROTEIN DEGRADATION” (Ranok Therapeutics (Hangzhou) Co. Ltd., priority 2020, published 2024)

Assays:
HSP90α protein = target: T1, HSP90α protein (Homo sapiens, UniProt P07900); assay: HSP90α-binding FP (BODIPY) assay; conditions: FP competition with BODIPY-labeled RNK04010
T1 construct: purchased BPS Bioscience #50298
Experimental: Binding of test compounds to HSP90α protein was measured by fluorescent polarization (FP) using the HSP90α (N-terminal) Assay Kit (BPS Bioscience, #50298), following the manufacturer's instructions, except as noted. Fluorescently labeled HSP90-binding compounds, either the provided FITC-geldanamycin (5 nM final concentration) or RNK04010, a triazolone-based HSP90 binding small molecule labeled with BODIPY through a piperazine-phenyl linker (5 nM final concentration) were employed. A 2.5-fold serial dilution of each test compound ranging from 20 μM to 5.2 nM was assayed for binding to HSP90α. After the final step of adding HSP90α protein to each assay well, plates were mixed by brief shaking, incubated at 25° C. for 120 min for FITC-geldanamycin or 300 min for RNK04010, and fluorescence was measured using a PerkinElmer EnVision Plate Reader.

[1] = tested on: MV-4-11 human acute myeloid leukemia; assay: MV-4-11 CCK-8 proliferation assay; type: cell-based; conditions: Homo sapiens, MV4-11; MV-4-11 cells, 72 hr
How it was run: (§1)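 Lines were maintained according to ATCC guidance. Compounds were then applied as a 3-fold titration from 20 μM to 1.02 nM, and proliferation was measured by CCK-8 absorbance, normalised to DMSO controls minus a no-cell blank.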

[2] = tested on: U-87 MG human glioblastoma; assay: U87 MG CCK-8 proliferation assay; type: cell-based; conditions: Homo sapiens, U-87 MG, 72 h, U-87 MG cells, read-out: U87MG CCK-8
How it was run: as §1

IC50 (HSP90α protein) [µM]	EC50 [1] [µM]	EC50 [2] [µM]	SMILES
> 1	0.1 to 1		CCOc1cc(N2CCC(C(=O)NCCOCCOCCOCCOc3ccc(Nc4cc(-n5nc(C(F)(F)F)c6c5CC(C)(C)CC6=O)ccc4C(N)=O)cc3)CC2)ccc1Nc1ncc2c(n1)N(S(C)(=O)=O)c1ccccc1C(=O)N2C [Compound 140, N-(2-(2-(2-(2-(4-((2-carbamoyl-5-(6,6-dimethyl-4-oxo-3-(trifluoromethyl)-4,5,6,7-tetrahydro-1H-indazol-1-yl)phenyl)amino)phenoxy)ethoxy)ethoxy)ethoxy)ethyl)-1-(3-ethoxy-4-((5-methyl-11-(methylsulfonyl)-6-oxo-6,11-dihydro-5H-benzo[e]pyrimido[5,4-b][1,4]diazepin-2-yl)amino)phenyl)piperidine-4-carboxamide]
	< 0.1	0.1 to 1	CCOc1cc(N2CCC(CN3CCN(Cc4ccc(-n5c(C(=O)NC(C)C(F)(F)F)nnc5-c5cc(CC)c(O)cc5O)cc4)CC3)CC2)ccc1Nc1ncc2c(n1)N(S(C)(=O)=O)c1ccccc1C(=O)N2C (stereo not shown) [Compound 185, 4-(4-((4-((1-(3-ethoxy-4-((5-methyl-11-(methylsulfonyl)-6-oxo-6,11-dihydro-5H-benzo[e]pyrimido[5,4-b][1,4]diazepin-2-yl)amino)phenyl)piperidin-4-yl)methyl)piperazin-1-yl)methyl)phenyl)-5-(5-ethyl-2,4-dihydroxyphenyl)-N-(1,1,1-trifluoropropan-2-yl)-4H-1,2,4-triazole-3-carboxamide]
	0.1 to 1	> 1	CCOc1cc(N2CCC(CN3CCN(Cc4ccc(-n5c(C(=O)NC(C)C(F)(F)F)nnc5-c5cc(CC)c(O)cc5O)cc4)CC3)CC2)ccc1Nc1ncc2c(n1)N(C1CCCC1)c1ccccc1C(=O)N2C (stereo not shown) [Compound 186, 4-(4-((4-((1-(4-((11-cyclopentyl-5-methyl-6-oxo-6,11-dihydro-5H-benzo[e]pyrimido[5,4-b][1,4]diazepin-2-yl)amino)-3-ethoxyphenyl)piperidin-4-yl)methyl)piperazin-1-yl)methyl)phenyl)-5-(5-ethyl-2,4-dihydroxyphenyl)-N-(1,1,1-trifluoropropan-2-yl)-4H-1,2,4-triazole-3-carboxamide]
	< 0.1	< 0.1	CCOc1cc(N2CCC(CN3CCN(Cc4ccc(-n5c(O)nnc5-c5cc(C(C)C)c(O)cc5O)cc4)CC3)CC2)ccc1Nc1ncc2c(n1)N(S(C)(=O)=O)c1ccccc1C(=O)N2C [Compound 187, 2-((4-(4-((4-(4-(3-(2,4-dihydroxy-5-isopropylphenyl)-5-hydroxy-4H-1,2,4-triazol-4-yl)benzyl)piperazin-1-yl)methyl)piperidin-1-yl)-2-ethoxyphenyl)amino)-5-methyl-11-(methylsulfonyl)-5,11-dihydro-6H-benzo[e]pyrimido[5,4-b][1,4]diazepin-6-one]
	0.1 to 1	> 1	CCOc1cc(N2CCN(Cc3ccc(-n4c(O)nnc4-c4cc(C(C)C)c(O)cc4O)cc3)CC2)ccc1Nc1ncc2c(n1)N(C1CCCC1)c1ccccc1C(=O)N2C [Compound 188, 11-cyclopentyl-2-((4-(4-(4-(3-(2,4-dihydroxy-5-isopropylphenyl)-5-hydroxy-4H-1,2,4-triazol-4-yl)benzyl)piperazin-1-yl)-2-ethoxyphenyl)amino)-5-methyl-5,11-dihydro-6H-benzo[e]pyrimido[5,4-b][1,4]diazepin-6-one]
	0.1 to 1	0.1 to 1	CCNC(=O)c1nnc(-c2cc(C(C)C)c(O)cc2O)n1-c1ccc(CN2CCN(c3ccc(Nc4ncc5c(n4)N(C4CCCC4)c4ccccc4C(=O)N5C)c(OCC)c3)CC2)cc1 [Compound 190, 4-(4-((4-(4-((11-cyclopentyl-5-methyl-6-oxo-6,11-dihydro-5H-benzo[e]pyrimido[5,4-b][1,4]diazepin-2-yl)amino)-3-ethoxyphenyl)piperazin-1-yl)methyl)phenyl)-5-(2,4-dihydroxy-5-isopropylphenyl)-N-ethyl-4H-1,2,4-triazole-3-carboxamide]
	< 0.1	< 0.1	CCOc1cc(CN2CCC(CN3CCN(Cc4ccc(-n5c(C(=O)NCC(F)(F)F)nnc5-c5cc(C(C)C)c(O)cc5O)cc4)CC3)CC2)ccc1Nc1ncc2c(n1)N(S(C)(=O)=O)c1ccccc1C(=O)N2C [Compound 191, 5-(2,4-dihydroxy-5-isopropylphenyl)-4-(4-((4-((1-(3-ethoxy-4-((5-methyl-11-(methylsulfonyl)-6-oxo-6,11-dihydro-5H-benzo[e]pyrimido[5,4-b][1,4]diazepin-2-yl)amino)benzyl)piperidin-4-yl)methyl)piperazin-1-yl)methyl)phenyl)-N-(2,2,2-trifluoroethyl)-4H-1,2,4-triazole-3-carboxamide]

More lines, now with the values behind:

SMILES	IC50 (HSP90α protein) [µM]	EC50 [1] [µM]	EC50 [2] [µM]
CCOc1cc(N2CCC(C(=O)N3CCC(CN4CCN(Cc5ccc(-n6c(O)nnc6-c6cc(CC)c(O)cc6O)cc5F)CC4)CC3)CC2)ccc1Nc1ncc2c(n1)N(C)c1ccccc1C(=O)N2C [Compound 019, 2-((2-ethoxy-4-(4-(4-((4-(4-(3-(5-ethyl-2,4-dihydroxyphenyl)-5-hydroxy-4H-1,2,4-triazol-4-yl)-2-fluorobenzyl)piperazin-1-yl)methyl)piperidine-1-carbonyl)piperidin-1-yl)phenyl)amino)-5,11-dimethyl-5,11-dihydro-6H-benzo[e]pyrimido[5,4-b][1,4]diazepin-6-one]	0.1 to 1	< 0.1	0.1 to 1
CCCc1cc(-c2nnc(O)n2-c2ccc(CN3CCN(CC4CCN(C(=O)C5CCN(c6ccc(Nc7ncc8c(n7)N(C)c7ccccc7C(=O)N8C)c(OCC)c6)CC5)CC4)CC3)cc2)c(O)cc1O [Compound 020, 2-((4-(4-(4-((4-(4-(3-(2,4-dihydroxy-5-propylphenyl)-5-hydroxy-4H-1,2,4-triazol-4-yl)benzyl)piperazin-1-yl)methyl)piperidine-1-carbonyl)piperidin-1-yl)-2-ethoxyphenyl)amino)-5,11-dimethyl-5,11-dihydro-6H-benzo[e]pyrimido[5,4-b][1,4]diazepin-6-one]	0.1 to 1	0.1 to 1	0.1 to 1
CCOc1cc(N2CCC(C(=O)N3CCC(CN4CCN(Cc5ccc(-n6c(C(=O)NC(C)C(F)(F)F)nnc6-c6cc(CC)c(O)cc6O)cc5)CC4)CC3)CC2)ccc1Nc1ncc2c(n1)N(S(C)(=O)=O)c1ccccc1C(=O)N2C (stereo not shown) [Compound 107, 4-(4-((4-((1-(1-(3-ethoxy-4-((5-methyl-11-(methylsulfonyl)-6-oxo-6,11-dihydro-5H-benzo[e]pyrimido[5,4-b][1,4]diazepin-2-yl)amino)phenyl)piperidine-4-carbonyl)piperidin-4-yl)methyl)piperazin-1-yl)methyl)phenyl)-5-(5-ethyl-2,4-dihydroxyphenyl)-N-(1,1,1-trifluoropropan-2-yl)-4H-1,2,4-triazole-3-carboxamide]	0.1 to 1	< 0.1	
CCOc1cc(N2CCC(C(=O)N3CCC(CN4CCC(COc5ccc(Nc6cc(-n7nc(C(F)(F)F)c8c7CC(C)(C)CC8=O)ccc6C(N)=O)cc5)CC4)CC3)CC2)ccc1Nc1ncc2c(n1)N(S(C)(=O)=O)c1ccccc1C(=O)N2C [Compound 137, 4-(6,6-dimethyl-4-oxo-3-(trifluoromethyl)-4,5,6,7-tetrahydro-1H-indazol-1-yl)-2-((4-((1-((1-(1-(3-ethoxy-4-((5-methyl-11-(methylsulfonyl)-6-oxo-6,11-dihydro-5H-benzo[e]pyrimido[5,4-b][1,4]diazepin-2-yl)amino)phenyl)piperidine-4-carbonyl)piperidin-4-yl)methyl)piperidin-4yl)methoxy)phenyl)amino)benzamide]	> 1	0.1 to 1	
CCOc1cc(N2CCC(C(=O)N3CCC(CN4CCN(CCOc5ccc(Nc6cc(-n7nc(C(F)(F)F)c8c7CC(C)(C)CC8=O)ccc6C(N)=O)cc5)CC4)CC3)CC2)ccc1Nc1ncc2c(n1)N(S(C)(=O)=O)c1ccccc1C(=O)N2C [Compound 138, 4-(6,6-dimethyl-4-oxo-3-(trifluoromethyl)-4,5,6,7-tetrahydro-1H-indazol-1-yl)-2-((4-(2-(4-((1-(1-(3-ethoxy-4-((5-methyl-11-(methylsulfonyl)-6-oxo-6,11-dihydro-5H-benzo[e]pyrimido[5,4-b][1,4]diazepin-2-yl)amino)phenyl)piperidine-4-carbonyl)piperidin-4-yl)methyl)piperazin-1-yl)ethoxy)phenyl)amino)benzamide]	> 1	0.1 to 1	
CCOc1cc(N2CCC(C(=O)NCCOCCOCCOc3ccc(Nc4cc(-n5nc(C(F)(F)F)c6c5CC(C)(C)CC6=O)ccc4C(N)=O)cc3)CC2)ccc1Nc1ncc2c(n1)N(S(C)(=O)=O)c1ccccc1C(=O)N2C [Compound 139, N-(2-(2-(2-(4-((2-carbamoyl-5-(6,6-dimethyl-4-oxo-3-(trifluoromethyl)-4,5,6,7-tetrahydro-1H-indazol-1-yl)phenyl)amino)phenoxy)ethoxy)ethoxy)ethyl)-1-(3-ethoxy-4-((5-methyl-11-(methylsulfonyl)-6-oxo-6,11-dihydro-5H-benzo[e]pyrimido[5,4-b][1,4]diazepin-2-yl)amino)phenyl)piperidine-4-carboxamide]	> 1	0.1 to 1	
